Measurements as given in BindingDB's records for doi:10.1016/S0960-894X(01)80832-5 (1994).
pIC50: −log10 of the molar value.

How the values were obtained:
[1] = target: Gastrin/cholecystokinin type B receptor (Cavia porcellus); assay: Inhibitory activity against cholecystokinin-B (CCK-B) receptor in cortex of male hartley guinea pig.
[2] = target: Gastrin/cholecystokinin type B receptor (Cavia porcellus); assay: as above; remark: listed apart in the source

Row | pIC50 [1] | pIC50 [2] | SMILES
1 | 6.85 |  | Cc1cccc(NC(=O)N[C@@H]2C[C@H](c3ccccc3)C[C@H](c3cccc(C)c3)N(CC(=O)NC(C)(C)C)C2=O)c1 [N-tert-Butyl-2-[(3R,5S,7R)-2-oxo-5-phenyl-7-m-tolyl-3-(3-m-tolyl-ureido)-azepan-1-yl]-acetamide]
2 | 7.15 |  | Cc1cccc(NC(=O)N[C@@H]2C[C@H](c3ccccc3C)C[C@H](c3ccccc3)N(CC(=O)Nc3ccccc3C)C2=O)c1 [2-[(3R,5S,7R)-2-Oxo-7-phenyl-5-o-tolyl-3-(3-m-tolyl-ureido)-azepan-1-yl]-N-o-tolyl-acetamide]
3 | 6.34 |  | Cc1cccc(NC(=O)N[C@@H]2C[C@H](c3ccccc3C)C[C@H](c3ccccc3)N(CC(=O)NC(C(C)(C)C)C(C)(C)C)C2=O)c1 [N-(1-tert-Butyl-2,2-dimethyl-propyl)-2-[(3R,5S,7R)-2-oxo-7-phenyl-5-o-tolyl-3-(3-m-tolyl-ureido)-azepan-1-yl]-acetamide]
4 | 8.11 | 6.28 | Cc1cccc(NC(=O)N[C@@H]2C[C@H](c3ccccc3C)C[C@H](c3ccccc3)N(CC(=O)NC(C)(C)C)C2=O)c1 [N-tert-Butyl-2-[(3R,5S,7R)-2-oxo-7-phenyl-5-o-tolyl-3-(3-m-tolyl-ureido)-azepan-1-yl]-acetamide]
5 | 7.55 |  | Cc1cccc(NC(=O)N[C@@H]2C[C@H](c3ccccc3C)C[C@H](c3ccccc3)N(CC(=O)Nc3ccccc3Cl)C2=O)c1 [N-(2-Chloro-phenyl)-2-[(3R,5S,7R)-2-oxo-7-phenyl-5-o-tolyl-3-(3-m-tolyl-ureido)-azepan-1-yl]-acetamide]
6 | 7.06 |  | COc1ccc(NC(=O)N[C@@H]2C[C@H](c3ccccc3C)C[C@H](c3ccccc3)N(CC(=O)NC(C)(C)C)C2=O)cc1 [N-tert-Butyl-2-{(3R,5S,7R)-3-[3-(4-methoxy-phenyl)-ureido]-2-oxo-7-phenyl-5-o-tolyl-azepan-1-yl}-acetamide]
7 | 6.87 |  | Cc1cccc(NC(=O)N[C@@H]2C[C@H](c3ccccc3C)C[C@H](c3ccccc3)N(CC(=O)NC3(C)CCCCC3)C2=O)c1 [N-(1-Methyl-cyclohexyl)-2-[(3R,5S,7R)-2-oxo-7-phenyl-5-o-tolyl-3-(3-m-tolyl-ureido)-azepan-1-yl]-acetamide]
8 | 6.69 |  | Cc1cccc(NC(=O)N[C@@H]2C[C@H](c3ccccc3)C[C@H](c3ccc(F)cc3)N(CC(=O)NC(C)(C)C)C2=O)c1 [N-tert-Butyl-2-[(3R,5S,7R)-7-(4-fluoro-phenyl)-2-oxo-5-phenyl-3-(3-m-tolyl-ureido)-azepan-1-yl]-acetamide]
9 | 6.93 |  | Cc1ccccc1[C@@H]1C[C@H](c2ccccc2)N(CC(=O)NC(C)(C)C)C(=O)[C@H](NC(=O)Nc2ccc(Cl)cc2)C1 [N-tert-Butyl-2-{(3R,5S,7R)-3-[3-(4-chloro-phenyl)-ureido]-2-oxo-7-phenyl-5-o-tolyl-azepan-1-yl}-acetamide]
10 | 7.19 |  | Cc1cccc(NC(=O)N[C@@H]2C[C@H](c3ccc(F)cc3)C[C@H](c3ccccc3)N(CC(=O)NC(C)(C)C)C2=O)c1 [N-tert-Butyl-2-[(3R,5S,7R)-5-(4-fluoro-phenyl)-2-oxo-7-phenyl-3-(3-m-tolyl-ureido)-azepan-1-yl]-acetamide]
11 | 7.55 |  | Cc1ccccc1[C@@H]1C[C@H](c2ccccc2)N(CC(=O)NC(C)(C)C)C(=O)[C@H](NC(=O)Nc2cccc(C(F)(F)F)c2)C1 [N-tert-Butyl-2-{(3R,5S,7R)-2-oxo-7-phenyl-5-o-tolyl-3-[3-(3-trifluoromethyl-phenyl)-ureido]-azepan-1-yl}-acetamide]
12 | 7.44 |  | Cc1ccccc1[C@@H]1C[C@H](c2ccccc2)N(CC(=O)NC(C)(C)C)C(=O)[C@H](NC(=O)Nc2cccc(F)c2)C1 [N-tert-Butyl-2-{(3R,5S,7R)-3-[3-(3-fluoro-phenyl)-ureido]-2-oxo-7-phenyl-5-o-tolyl-azepan-1-yl}-acetamide]
13 | 7.42 |  | CCc1cccc(NC(=O)N[C@@H]2C[C@H](c3ccccc3C)C[C@H](c3ccccc3)N(CC(=O)NC3(C)CCCCC3)C2=O)c1 [2-{(3R,5S,7R)-3-[3-(3-Ethyl-phenyl)-ureido]-2-oxo-7-phenyl-5-o-tolyl-azepan-1-yl}-N-(1-methyl-cyclohexyl)-acetamide]
14 | 7.40 |  | Cc1ccc(NC(=O)CN2C(=O)[C@H](NC(=O)Nc3cccc(C)c3)C[C@H](c3ccccc3C)C[C@@H]2c2ccccc2)cc1 [2-[(3R,5S,7R)-2-Oxo-7-phenyl-5-o-tolyl-3-(3-m-tolyl-ureido)-azepan-1-yl]-N-p-tolyl-acetamide]
15 | 7.51 |  | Cc1cccc(NC(=O)N[C@@H]2C[C@H](c3ccccc3)C[C@H](c3cccc(F)c3)N(CC(=O)NC(C)(C)C)C2=O)c1 [N-tert-Butyl-2-[(3R,5S,7R)-7-(3-fluoro-phenyl)-2-oxo-5-phenyl-3-(3-m-tolyl-ureido)-azepan-1-yl]-acetamide]
16 | 6.72 |  | Cc1ccc([C@@H]2C[C@H](c3ccccc3)N(CC(=O)NC(C)(C)C)C(=O)[C@H](NC(=O)Nc3cccc(C)c3)C2)cc1 [N-tert-Butyl-2-[(3R,5S,7R)-2-oxo-7-phenyl-5-p-tolyl-3-(3-m-tolyl-ureido)-azepan-1-yl]-acetamide]
17 | 6.25 |  | Cc1ccc([C@H]2C[C@@H](c3ccccc3)C[C@@H](NC(=O)Nc3cccc(C)c3)C(=O)N2CC(=O)NC(C)(C)C)cc1 [N-tert-Butyl-2-[(3R,5S,7R)-2-oxo-5-phenyl-7-p-tolyl-3-(3-m-tolyl-ureido)-azepan-1-yl]-acetamide]
18 | 8.00 |  | Cc1ccccc1[C@@H]1C[C@H](c2ccccc2)N(CC(=O)NC(C)(C)C)C(=O)[C@H](NC(=O)Nc2cccc([N+](=O)[O-])c2)C1 [N-tert-Butyl-2-{(3R,5S,7R)-3-[3-(3-nitro-phenyl)-ureido]-2-oxo-7-phenyl-5-o-tolyl-azepan-1-yl}-acetamide]
19 | 7.60 |  | CCc1ccccc1[C@@H]1C[C@H](c2ccccc2)N(CC(=O)NC(C)(C)C)C(=O)[C@H](NC(=O)Nc2cccc(C)c2)C1 [N-tert-Butyl-2-[(3R,5S,7R)-5-(2-ethyl-phenyl)-2-oxo-7-phenyl-3-(3-m-tolyl-ureido)-azepan-1-yl]-acetamide]
20 | 7.55 |  | COc1ccccc1[C@@H]1C[C@H](c2ccccc2)N(CC(=O)NC(C)(C)C)C(=O)[C@H](NC(=O)Nc2cccc(C)c2)C1 [N-tert-Butyl-2-[(3R,5S,7R)-5-(2-methoxy-phenyl)-2-oxo-7-phenyl-3-(3-m-tolyl-ureido)-azepan-1-yl]-acetamide]
